Laboratory results: ChEMBL document CHEMBL1201862, “PubChem BioAssay data set” (2004)
Calls of active or inactive are those of the source.

Tests used:
[1] = inhibitors of intracellular T. cruzi replication, confirmation, NIH3T3 host cells, beta-gal luminescence (AID 2044); format: functional, cell-based;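 further: intracellular parasites grown in NIH/3T3 mouse fibroblasts as host cells; luminescent beta-galactosidase reporter signal from transgenic T. cruzi replicating inside host cells; inhibitors lower the luminescence signal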
[2] = microbe, parasite or virus in culture; format: functional; conditions: Mycobacterium tuberculosis
[3] = cytotoxicity toward NIH3T3 fibroblasts, dose response, counter-screen, cell-based, ATP luminescence, mouse fibroblasts (AID 2010); format: functional;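 further: cells exposed to compound for about 90 hours before reading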
[4] = THP-1 cell cytotoxicity, dose response, cytotoxicity control for non-replicating M. tuberculosis project (AID 489025); format: functional
[5] = HepG2 cell cytotoxicity, dose response, cytotoxicity control for non-replicating M. tuberculosis project (AID 489018); format: functional; conditions: Mycobacterium tuberculosis
[6] = Vero E6 cell cytotoxicity, dose response, cytotoxicity control for non-replicating M. tuberculosis project, secondary assay (AID 492998); format: functional, VeroE6; conditions: Vero C1008
[7] = cells; format: functional
[8] = biological target: Estrogen receptor beta (Homo sapiens, UniProt Q92731);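 further: recombinant ER-beta bound to coactivator SRC1 peptide in presence of estradiol agonist; inhibitors block coactivator peptide binding and lower the FRET signal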
[9] = biological target: E3 ubiquitin-protein ligase Mdm2 (Homo sapiens, UniProt Q00987); assay: enhancers of MDM2-luciferase reporter signal, concentration-effect titration, project on inhibitors of MDM2 ubiquitin ligase, cellular assay, luminescent readout, 384-well plate format (AID 1394); format: functional;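 further: MDM2 E3 inhibitors raise luminescence so EC50 is for signal enhancement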
[10] = biological target: T1, Methionyl-tRNA synthetase, putative (Trypanosoma brucei brucei, UniProt Q38C91); format: functional, Trypanosoma brucei brucei strain 927/4 GUTat10.1
T1 sequence (Q38C91 whole entry): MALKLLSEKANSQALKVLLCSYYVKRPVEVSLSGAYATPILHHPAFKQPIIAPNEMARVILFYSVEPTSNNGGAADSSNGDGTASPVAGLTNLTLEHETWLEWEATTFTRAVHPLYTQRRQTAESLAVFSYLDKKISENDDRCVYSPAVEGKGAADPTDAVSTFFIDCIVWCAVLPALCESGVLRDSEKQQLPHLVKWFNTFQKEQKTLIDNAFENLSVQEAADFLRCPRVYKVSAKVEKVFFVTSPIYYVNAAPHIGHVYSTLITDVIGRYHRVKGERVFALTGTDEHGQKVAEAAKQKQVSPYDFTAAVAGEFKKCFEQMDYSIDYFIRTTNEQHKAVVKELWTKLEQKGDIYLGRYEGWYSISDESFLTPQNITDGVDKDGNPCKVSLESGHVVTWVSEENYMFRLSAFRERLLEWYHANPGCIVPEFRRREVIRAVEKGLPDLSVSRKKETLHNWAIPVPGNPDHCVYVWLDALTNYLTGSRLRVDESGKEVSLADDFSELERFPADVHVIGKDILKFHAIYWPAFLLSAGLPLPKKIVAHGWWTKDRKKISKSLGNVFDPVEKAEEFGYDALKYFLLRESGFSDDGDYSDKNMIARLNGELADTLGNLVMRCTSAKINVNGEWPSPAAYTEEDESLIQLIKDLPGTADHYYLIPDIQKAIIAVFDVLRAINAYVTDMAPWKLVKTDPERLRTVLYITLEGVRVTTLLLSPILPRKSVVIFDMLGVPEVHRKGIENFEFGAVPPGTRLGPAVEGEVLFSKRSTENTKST

[11] = Counterscreen for inhibitors of Trypanosoma brucei methionyl tRNA synthetase (MetRS): Luminescence-based cell-based high throughput dose response assay to identify compounds that are cytotoxic to Jurkat human T lymphocyte cells.; format: functional
[12] = biological target: T1, Methionyl-tRNA synthetase, putative; format: functional, Trypanosoma brucei brucei strain 927/4 GUTat10.1; remark: listed apart in the source
[13] = Late stage counterscreen for inhibitors of Trypanosoma brucei methionyl tRNA synthetase (MetRS): Luminescence-based cell-based high throughput dose response assay to identify compounds that are cytotoxic to Jurkat human T lymphocyte cells.; format: functional
[14] = inhibitors of firefly luciferase expression or activity, dose response, H4 neuroglioma cells, luminescence (AID 1990); format: functional, cell-based
[15] = test system: BJ; assay: cytotoxicity toward BJ-TERT fibroblasts, dose response, cell-based, RAS-independent, luminescence (AID 1933); format: functional; conditions: Homo sapiens
[16] = Luminescence Cell-Based Dose Response HTS to Identify Inhibitors of 5'UTR Stem-Loop Driven Prion Protein mRNA Translation in H4 Neuroglioblastoma Cells. [Related pubchem assays: 1827 (Project Summary), 1813 (Primary HTS)]; format: functional
[17] = inhibitors of SNCA 5'UTR-driven reporter translation, confirmation, H4 neuroglioma cells, luminescence (AID 1988); format: functional, cell-based
[18] = test system: BJ; assay: cells; format: functional, cell-based; conditions: Homo sapiens
[19] = Luminescence-based dose response cell-based high throughput screening assay for cytotoxic compounds using the IEC-6 intestinal epithelial cell line. [Related pubchem assays: 1858 (Summary AID.), 1825 (Counterscreen.), 1907 (Confirmation screen.)]; format: functional
[20] = test system: BJ; assay: cytotoxicity toward BJ-TERT-LT-ST fibroblasts, dose response, cell-based, RAS-independent, luminescence (AID 1935); format: functional; conditions: Homo sapiens;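 further: BJ fibroblasts immortalized with TERT plus LT and ST oncogenes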
[21] = cytotoxicity toward DRD oncogenic fibroblasts, dose response, cell-based, non-viral oncogenic, luminescence (AID 1934); format: functional; conditions: Homo sapiens
[22] = biological target: T2, Replicative DNA helicase DnaB (Mycobacterium tuberculosis, UniProt P9WMR3); assay: DnaB intein splicing inhibitors, dose response, biochemical, cell-free fluorescence (AID 449749); format: functional
T2 sequence (P9WMR3 whole entry): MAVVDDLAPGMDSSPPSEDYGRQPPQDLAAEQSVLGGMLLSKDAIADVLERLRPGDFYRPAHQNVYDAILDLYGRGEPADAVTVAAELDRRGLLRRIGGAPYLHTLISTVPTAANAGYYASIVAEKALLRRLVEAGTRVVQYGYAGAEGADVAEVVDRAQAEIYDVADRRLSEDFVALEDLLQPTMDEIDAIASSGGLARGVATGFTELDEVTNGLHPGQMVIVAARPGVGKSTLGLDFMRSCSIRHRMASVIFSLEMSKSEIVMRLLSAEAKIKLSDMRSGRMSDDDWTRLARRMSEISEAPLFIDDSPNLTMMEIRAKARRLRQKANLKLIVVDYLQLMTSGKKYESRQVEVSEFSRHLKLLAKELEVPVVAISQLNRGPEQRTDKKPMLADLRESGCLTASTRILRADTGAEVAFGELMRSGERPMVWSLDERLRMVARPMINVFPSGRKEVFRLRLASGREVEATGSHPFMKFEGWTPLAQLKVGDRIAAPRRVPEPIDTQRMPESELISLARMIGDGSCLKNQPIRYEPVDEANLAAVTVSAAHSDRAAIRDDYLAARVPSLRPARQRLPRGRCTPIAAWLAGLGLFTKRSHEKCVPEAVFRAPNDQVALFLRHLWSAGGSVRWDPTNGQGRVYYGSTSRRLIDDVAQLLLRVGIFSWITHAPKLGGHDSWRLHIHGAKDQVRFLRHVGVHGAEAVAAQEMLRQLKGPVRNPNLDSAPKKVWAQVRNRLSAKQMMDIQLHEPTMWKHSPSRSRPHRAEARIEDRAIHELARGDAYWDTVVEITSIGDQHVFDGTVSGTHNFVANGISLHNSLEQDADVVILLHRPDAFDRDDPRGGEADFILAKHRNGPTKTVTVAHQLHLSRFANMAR

[23] = test system: BJ; assay: cytotoxicity toward Ras-transformed BJeLR fibroblasts, dose response, cell-based, alamar blue fluorescence, cherrypicked samples (AID 2631); format: functional; conditions: Homo sapiens;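 further: confirmatory dose-response assay in RAS-dependent BJ fibroblasts engineered with TERT, LT and ST, with cytotoxicity read by fluorescence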
[24] = biological target: T3, Protein RecA (Mycobacterium tuberculosis, UniProt P9WHJ3); assay: Fluorescence Cell-Free Homogeneous Dose Retest to Identify Inhibitors of RecA-Intein Splicing Activity. [Related pubchem assays (depositor defined):AID2097, AID2223, AID489010, AID492950]; format: functional
T3 sequence (P9WHJ3 whole entry): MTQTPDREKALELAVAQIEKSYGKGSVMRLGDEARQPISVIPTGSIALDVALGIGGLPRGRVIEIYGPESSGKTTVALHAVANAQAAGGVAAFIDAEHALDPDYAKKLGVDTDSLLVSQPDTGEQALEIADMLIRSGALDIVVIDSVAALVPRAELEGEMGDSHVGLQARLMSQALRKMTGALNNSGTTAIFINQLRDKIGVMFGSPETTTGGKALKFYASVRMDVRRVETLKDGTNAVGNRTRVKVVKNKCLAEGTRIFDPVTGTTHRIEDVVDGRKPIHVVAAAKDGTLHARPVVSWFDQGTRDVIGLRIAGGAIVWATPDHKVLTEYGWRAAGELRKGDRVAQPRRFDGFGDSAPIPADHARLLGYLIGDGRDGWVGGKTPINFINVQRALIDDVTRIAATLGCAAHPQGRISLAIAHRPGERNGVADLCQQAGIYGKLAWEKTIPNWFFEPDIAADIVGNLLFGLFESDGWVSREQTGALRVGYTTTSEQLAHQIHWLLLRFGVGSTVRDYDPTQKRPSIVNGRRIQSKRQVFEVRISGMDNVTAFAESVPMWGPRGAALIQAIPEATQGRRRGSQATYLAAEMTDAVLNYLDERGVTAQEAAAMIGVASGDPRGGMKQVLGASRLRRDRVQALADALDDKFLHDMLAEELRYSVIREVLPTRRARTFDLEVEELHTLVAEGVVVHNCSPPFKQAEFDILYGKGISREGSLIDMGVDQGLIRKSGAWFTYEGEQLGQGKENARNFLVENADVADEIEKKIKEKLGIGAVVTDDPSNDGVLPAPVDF

[25] = test system: INS1; assay: beta cell apoptosis inhibitors, cytokine rescue, dose response, luminescence, retest (AID 449756); format: functional, cell-based; conditions: Rattus norvegicus;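 further: cell death triggered by IL-1 beta plus TNF-alpha plus IFN-gamma mixture; protective hits raise ATP signal compared with cytokine alone wells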
[26] = biological target: Paired box protein Pax-8 (Homo sapiens, UniProt Q06710); assay: inhibitors of PAX8-driven TPO luciferase reporter, dose response, RMG-I cells, cherry-pick (AID 687027); format: functional, cell-based;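 further: luciferase reporter driven by Pax8 target thyroperoxidase promoter measured by SteadyGlo luminescence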
[27] = non-specific cell cytotoxicity, dose response, cytotoxicity control for PAX8 inhibitor project, plate reader, dry powder samples (AID 743021); format: functional, cell-based
[28] = biological target: Voltage-dependent T-type calcium channel subunit alpha-1H (Homo sapiens, UniProt O95180); format: functional;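 further: channel activity triggered by adding a high calcium stimulation buffer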
[29] = biological target: Luciferin 4-monooxygenase (Photinus pyralis, UniProt P08659); assay: firefly luciferase enzyme inhibitors, dose response, biochemical, luminescence (AID 1891)
[30] = Luminescence Cell-Based Dose Confirmation HTS to Identify Inhibitors of Platelet Dense Granule Release. [Related pubchem assays: 1663 (Primary HTS), 1678 (Summary of Project)]; format: functional

Chain of Voltage-dependent T-type calcium channel subunit alpha-1H (O95180 whole entry): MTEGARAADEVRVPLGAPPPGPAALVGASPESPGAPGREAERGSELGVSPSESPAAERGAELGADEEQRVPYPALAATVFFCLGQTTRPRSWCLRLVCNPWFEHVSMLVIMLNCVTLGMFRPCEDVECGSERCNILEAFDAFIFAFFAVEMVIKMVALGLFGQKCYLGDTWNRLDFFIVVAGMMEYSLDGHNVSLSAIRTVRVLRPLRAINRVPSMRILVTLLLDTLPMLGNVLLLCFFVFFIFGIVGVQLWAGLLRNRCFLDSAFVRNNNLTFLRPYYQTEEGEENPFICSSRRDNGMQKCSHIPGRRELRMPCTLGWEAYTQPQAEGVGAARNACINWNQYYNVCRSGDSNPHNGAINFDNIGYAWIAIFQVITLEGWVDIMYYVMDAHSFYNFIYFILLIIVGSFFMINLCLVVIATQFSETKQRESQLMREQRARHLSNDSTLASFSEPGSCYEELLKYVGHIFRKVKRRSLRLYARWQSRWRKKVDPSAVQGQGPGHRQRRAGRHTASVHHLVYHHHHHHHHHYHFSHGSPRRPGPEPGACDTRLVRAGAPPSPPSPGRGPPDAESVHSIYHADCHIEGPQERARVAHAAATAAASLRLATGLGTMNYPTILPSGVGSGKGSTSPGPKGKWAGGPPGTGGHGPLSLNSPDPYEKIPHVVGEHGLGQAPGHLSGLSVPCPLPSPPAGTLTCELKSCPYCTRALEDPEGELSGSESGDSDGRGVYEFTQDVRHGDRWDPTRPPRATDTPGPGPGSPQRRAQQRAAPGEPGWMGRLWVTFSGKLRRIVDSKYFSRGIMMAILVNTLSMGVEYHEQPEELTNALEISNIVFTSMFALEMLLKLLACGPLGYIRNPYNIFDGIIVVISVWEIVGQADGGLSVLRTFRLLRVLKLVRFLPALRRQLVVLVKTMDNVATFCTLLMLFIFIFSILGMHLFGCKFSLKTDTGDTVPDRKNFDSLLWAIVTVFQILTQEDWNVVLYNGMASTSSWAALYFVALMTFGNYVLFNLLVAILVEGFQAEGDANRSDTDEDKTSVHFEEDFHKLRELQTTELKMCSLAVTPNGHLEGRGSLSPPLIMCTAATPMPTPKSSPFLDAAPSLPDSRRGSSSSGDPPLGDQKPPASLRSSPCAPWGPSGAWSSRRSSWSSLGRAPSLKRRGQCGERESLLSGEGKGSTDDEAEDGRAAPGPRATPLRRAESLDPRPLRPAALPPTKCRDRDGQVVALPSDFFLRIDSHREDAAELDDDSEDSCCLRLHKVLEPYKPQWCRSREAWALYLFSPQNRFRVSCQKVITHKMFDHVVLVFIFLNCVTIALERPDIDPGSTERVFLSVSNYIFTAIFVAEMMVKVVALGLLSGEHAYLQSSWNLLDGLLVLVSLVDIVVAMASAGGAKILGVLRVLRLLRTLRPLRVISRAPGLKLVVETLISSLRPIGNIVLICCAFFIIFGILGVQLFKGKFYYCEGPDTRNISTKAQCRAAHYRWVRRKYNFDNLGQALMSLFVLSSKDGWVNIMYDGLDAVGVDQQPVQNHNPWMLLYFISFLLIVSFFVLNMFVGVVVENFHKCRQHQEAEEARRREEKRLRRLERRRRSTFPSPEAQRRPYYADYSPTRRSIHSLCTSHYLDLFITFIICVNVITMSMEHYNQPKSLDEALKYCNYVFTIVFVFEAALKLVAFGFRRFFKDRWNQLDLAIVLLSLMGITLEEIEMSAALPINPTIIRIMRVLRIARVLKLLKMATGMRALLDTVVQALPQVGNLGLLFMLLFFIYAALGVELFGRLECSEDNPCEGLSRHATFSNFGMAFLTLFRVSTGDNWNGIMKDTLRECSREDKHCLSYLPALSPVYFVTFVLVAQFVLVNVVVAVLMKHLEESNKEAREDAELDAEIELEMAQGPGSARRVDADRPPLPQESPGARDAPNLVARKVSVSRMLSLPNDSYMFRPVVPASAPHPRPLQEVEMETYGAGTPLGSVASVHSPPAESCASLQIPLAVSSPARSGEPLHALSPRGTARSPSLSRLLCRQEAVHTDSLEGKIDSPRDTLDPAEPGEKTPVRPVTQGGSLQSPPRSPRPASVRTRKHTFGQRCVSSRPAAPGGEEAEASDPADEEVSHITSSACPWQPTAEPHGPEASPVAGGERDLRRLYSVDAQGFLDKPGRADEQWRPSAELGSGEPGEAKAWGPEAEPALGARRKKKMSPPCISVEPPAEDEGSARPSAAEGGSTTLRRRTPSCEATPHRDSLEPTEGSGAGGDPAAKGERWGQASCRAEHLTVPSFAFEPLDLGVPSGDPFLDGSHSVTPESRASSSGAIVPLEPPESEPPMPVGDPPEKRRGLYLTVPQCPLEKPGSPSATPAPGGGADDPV
Chain of Estrogen receptor beta (Q92731 whole entry): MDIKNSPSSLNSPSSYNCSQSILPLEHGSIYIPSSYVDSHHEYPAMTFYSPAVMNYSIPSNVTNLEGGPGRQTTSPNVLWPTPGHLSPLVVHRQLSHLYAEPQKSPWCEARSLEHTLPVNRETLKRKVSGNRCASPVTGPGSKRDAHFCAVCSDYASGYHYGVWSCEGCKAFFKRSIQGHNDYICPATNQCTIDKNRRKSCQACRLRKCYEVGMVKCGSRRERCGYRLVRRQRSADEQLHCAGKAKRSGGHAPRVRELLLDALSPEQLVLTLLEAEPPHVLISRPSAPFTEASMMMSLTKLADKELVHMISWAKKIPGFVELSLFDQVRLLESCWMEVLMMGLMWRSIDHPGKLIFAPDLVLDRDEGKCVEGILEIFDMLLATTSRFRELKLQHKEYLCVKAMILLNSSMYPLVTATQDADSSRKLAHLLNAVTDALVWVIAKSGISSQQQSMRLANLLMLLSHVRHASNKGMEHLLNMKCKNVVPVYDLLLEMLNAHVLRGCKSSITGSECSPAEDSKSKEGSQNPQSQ
Chain of E3 ubiquitin-protein ligase Mdm2 (Q00987 whole entry): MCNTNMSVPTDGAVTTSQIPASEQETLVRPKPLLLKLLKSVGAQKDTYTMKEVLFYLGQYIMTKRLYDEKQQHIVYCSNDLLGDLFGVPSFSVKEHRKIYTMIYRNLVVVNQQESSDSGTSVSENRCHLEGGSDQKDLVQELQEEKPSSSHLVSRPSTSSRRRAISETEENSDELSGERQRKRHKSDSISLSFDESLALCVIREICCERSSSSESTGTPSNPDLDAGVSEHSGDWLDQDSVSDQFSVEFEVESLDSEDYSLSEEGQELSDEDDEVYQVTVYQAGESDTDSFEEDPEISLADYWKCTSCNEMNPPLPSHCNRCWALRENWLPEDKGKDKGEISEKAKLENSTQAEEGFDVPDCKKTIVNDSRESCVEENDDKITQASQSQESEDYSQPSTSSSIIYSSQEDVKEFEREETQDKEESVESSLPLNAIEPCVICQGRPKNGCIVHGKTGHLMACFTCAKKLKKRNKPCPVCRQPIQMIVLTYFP
Chain of Paired box protein Pax-8 (Q06710 whole entry): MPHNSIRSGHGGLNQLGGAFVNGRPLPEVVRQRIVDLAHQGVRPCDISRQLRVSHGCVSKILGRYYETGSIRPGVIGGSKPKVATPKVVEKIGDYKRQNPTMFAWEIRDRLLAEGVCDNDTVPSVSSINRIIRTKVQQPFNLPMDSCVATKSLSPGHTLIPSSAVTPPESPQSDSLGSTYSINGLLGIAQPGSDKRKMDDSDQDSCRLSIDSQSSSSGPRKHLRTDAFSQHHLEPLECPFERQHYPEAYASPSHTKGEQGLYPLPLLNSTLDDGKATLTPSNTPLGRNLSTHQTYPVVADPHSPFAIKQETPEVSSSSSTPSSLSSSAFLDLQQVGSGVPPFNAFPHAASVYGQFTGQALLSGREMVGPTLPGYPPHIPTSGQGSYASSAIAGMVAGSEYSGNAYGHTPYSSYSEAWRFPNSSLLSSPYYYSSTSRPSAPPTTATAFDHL
Chain of Luciferin 4-monooxygenase (P08659 whole entry): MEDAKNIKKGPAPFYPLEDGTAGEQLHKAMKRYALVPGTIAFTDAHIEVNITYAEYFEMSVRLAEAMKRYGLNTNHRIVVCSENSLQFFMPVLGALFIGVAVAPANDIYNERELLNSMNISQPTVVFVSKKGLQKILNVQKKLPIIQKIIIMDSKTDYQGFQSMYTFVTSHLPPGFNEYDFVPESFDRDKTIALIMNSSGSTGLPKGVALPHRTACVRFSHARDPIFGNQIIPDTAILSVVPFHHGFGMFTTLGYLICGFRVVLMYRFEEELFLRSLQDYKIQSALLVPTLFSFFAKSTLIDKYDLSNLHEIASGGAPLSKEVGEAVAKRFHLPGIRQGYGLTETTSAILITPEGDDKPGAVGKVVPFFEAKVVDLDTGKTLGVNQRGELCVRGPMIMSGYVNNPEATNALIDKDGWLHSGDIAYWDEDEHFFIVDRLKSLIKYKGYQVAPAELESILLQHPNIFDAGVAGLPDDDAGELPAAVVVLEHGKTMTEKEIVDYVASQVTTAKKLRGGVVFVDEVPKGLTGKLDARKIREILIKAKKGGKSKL

Compound: CN1CC=C(/C=C/c2ccc(-c3ccccc3)cc2)CC1
- EC50 [1]: 2.12 µM (active)
- CC50 [2]: 8.12 µM (active)
- EC50 [3]: 8.86 µM (active)
- CC50 [4]: 23.7 µM (active)
- CC50 [5]: 12 µM (active)
- CC50 [6]: 9.99 µM (active)
- IC50 [7]: 26.6 µM (active)

Compound: O=C(OCC(=O)N1CCCC1)c1cncc(Br)c1
- IC50 [8]: > 50 µM (not active)

Compound: CC(/C=C\C=C\c1ccccc1)=N\NC(=O)c1cncc(Br)c1
- CC50 [4]: 35 µM (active)
- CC50 [5]: > 20 µM (active)
- IC50 [7]: 12 µM (active)

Compound: COc1ccc2[nH]c3c(N4CC(C)OC(C)C4)ncnc3c2c1 (stereo unspecified)
- EC50 [9]: 7.39 µM (not active)

Compound: COc1ccc2[nH]c3nc(SCC(=O)Nc4ccc5c(c4)OCO5)nnc3c2c1
- IC50 [10]: 1.33 µM (active)
- IC50 [11]: 24.5 µM (inactive)
- IC50 [12]: 0.489 µM (active)
- IC50 [13]: 36.6 µM (inactive)

Compound: COc1ccc(C2C(O)C(c3c[nH]c4ccccc34)=NN2C(=O)CCl)cc1 (stereo unspecified)
- EC50 [14]: > 30 µM (not active)
- EC50 [15]: 0.622 µM (inconclusive)
- EC50 [16]: 11.1 µM (active)
- EC50 [17]: 8.2 µM (active)
- EC50 [18]: 2.65 µM (inconclusive)
- IC50 [19]: 1.49 µM (active)
- EC50 [20]: 1.13 µM (inconclusive)
- EC50 [21]: 1.37 µM (inconclusive)
- AC50 [22]: 2.56 µM (active)
- EC50 [23]: 0.443 µM (active)
- EC50 [24]: 0.582 µM (active)
- AC50 [25]: 2.19 µM (active)
- AC50 [26]: 0.65 µM (active)
- AC50 [27]: 0.954 µM (active)

Compound: Cc1cc(Nc2ccccc2)n(-c2ccc(Br)cc2)n1
- EC50 [28]: 2.24 µM (active)

Compound: CCN(CCNC(=O)CS(=O)(=O)Cc1nc(-c2cccc(OC)c2)oc1C)c1ccccc1
- EC50 [28]: 1.49 µM (active)

Compound: CC(C)CC(OC(=O)c1cccs1)C(=O)NCc1ccco1 (stereo unspecified)
- IC50 [8]: > 50 µM (not active)

Compound: O=C(Cn1cnc2ccccc21)Nc1cccc([N+](=O)[O-])c1
- IC50 [10]: 3.47 µM (active)
- IC50 [11]: 83.1 µM (inactive)
- IC50 [12]: 1.76 µM (active)
- IC50 [13]: > 83.3 µM (inactive)

Compound: Cc1ccc(C(=O)Nc2ccc3c(c2)OCO3)cc1S(=O)(=O)N1CCCCC1
- EC50 [28]: 4.78 µM (active)

Compound: O=C(Cc1ccc(-n2c(=O)c3ccccc3n(Cc3ccccc3Cl)c2=O)cc1)NCC1CCCO1 (stereo unspecified)
- EC50 [9]: 8.14 µM (not active)
- EC50 [29]: > 112 µM (not active)
- EC50 [30]: > 112 µM (not active)
